Like-named read-outs stand apart in the source and are kept apart here.
Test system: tumor-repopulating cells of B16-F1 melanoma
Assay: Inhibitory activity on proliferation of tumor-repopulating cells (TRCs) of B16-F1 melanoma in 3D fibrin gel
Assay type: cell-based
Conditions: for IC50: colony tumor volume, read-out: IC50 of inhibition on TRCs of B16-F1 melanoma/μM
Experimental: B16-F1 Melanoma cells were incubated with 3D fibrin gel medium (90-Pa) for 5 days, and the desired tumor-repopulating cells of melanoma were screened (Nat. Mater. 2012, 11, 734). Subsequently, the culture medium was respectively treated with collagenase and neutral protease II, and the tumor-repopulating cells of B16-F1 melanoma were released, then the obtained repopulating cells were transferred to a freshly prepared medium to be resuspended and maintained at single-cell state. The tumor-repopulating cells of B16-F1 melanoma were inoculated in 3D fibrin gel medium (90-Pa) for 5 days, with 0.1% DMSO as the negative control group, Tazarotene and Bexarotene as the positive control drugs respectively, […] for 5 days. The colony tumor size was measured and calculated, and the inhibition rate of each drug on the tumor-repopulating cells of B16-F1 melanoma was calculated. The results of inhibitory activity of the compound of the present invention on the proliferation of tumor-repopulating cells of B16-F1 melanoma were shown in Table 2 below.

[1] = Mus musculus, B16-F1, 120 h, 10 μM, incubated 5 days, colony tumor size, read-out: Inhibition rate on TRCs of B16-F1 melanoma at a concentration of 10 μM (%)
[2] = Mus musculus, B16-F1, dose-response curve
[3] = Mus musculus, B16-F1, 10 μM (Table 3), read-out: Inhibition rate on TRCs of B16-F1 melanoma at a concentration of 10 μM/%

Row | SMILES | inhibition at 10 µM [1] [%] | also measured
1 | C=C(c1ccc(C(=O)O)cc1)c1cc2c(cc1C)C(C)(C)CCC2(C)C [Bexarotene, reference compound] | 63.3 | 
2 | CCOC(=O)c1ccc(C#Cc2ccc3c(c2)C(C)(C)CCS3)nc1 [Tazarotene, reference compound] | 67.6 | 
3 | COC(=O)c1ccc(C#Cc2ccc3c(c2)C(C)(C)CCS3)cc1O [WYC-101, methyl 4-((4,4-dimethylthiochroman-6-yl)ethynyl)-2-hydroxybenzoate] | 76 | 
4 | COC(=O)c1ccc(C#Cc2ccc3c(c2)C(C)(C)CCS3)cc1OC [WYC-102, methyl 4-((4,4-dimethylthiochroman-6-yl)ethynyl)-2-methoxybenzoate] | 59.1 | 
5 | CC1(C)CCSc2ccc(C#Cc3ccc(C(=O)O)c(O)c3)cc21 [WYC-105, 4-((4,4-dimethylthiochroman-6-yl)ethynyl)-2-hydroxybenzoic Acid] |  | inhibition at 10 µM (Mus musculus, B16-F1, 120 h, read-out: Inhibition rate on TRCs of B16-F1 melanoma at a concentration of 10 μM (%)): 64.1%
6 | COc1cc(C#Cc2ccc3c(c2)C(C)(C)CCS3)ccc1C(=O)O [WYC-106] | 72.4 | 
7 | COC(=O)c1ccc(C#Cc2ccc3c(c2)C(C)(C)CCS3)c(O)c1 [WYC-107, methyl 4-((4,4-dimethylthiochroman-6-yl)ethynyl)-3-hydroxybenzoate] | 75 | IC50 [2]: 2.12 µM; inhibition at 10 µM [3]: 75%
8 | CC1(C)CCSc2ccc(C#Cc3cnc(C#N)nc3)cc21 [WYC-202, 2-cyano-5-((4,4-dimethylthiochroman-6-yl)ethynyl)pyrimidine] | 85.3 | 
9 | CCOC(=O)c1cnc(C#Cc2ccc3c(c2)C(C)(C)CCS3)nc1 [WYC-203, ethyl 2-((4,4-dimethylthiochroman-6-yl)ethynyl)pyrimidin-5-carboxylate] | 90.5 | 
10 | COC(=O)c1ncc(C#Cc2ccc3c(c2)C(C)(C)CCS3)cn1 [WYC-204, methyl 5-((4,4-dimethylthiochroman-6-yl)ethynyl)pyrimidin-2-carboxylate] | 25.6 | 
11 | CCOC(=O)c1ncc(C#Cc2ccc3c(c2)C(C)(C)CCS3)cn1 [WYC-205, ethyl 5-((4,4-dimethylthiochroman-6-yl)ethynyl)pyrimidin-2-carboxylate] | 91.5 | 
12 | CC1(C)CCSc2ccc(C#Cc3ncc(C(=O)O)cn3)cc21 [WYC-206, 2-((4,4-dimethylthiochroman-6-yl)ethynyl)pyrimidin-5-carboxylic acid] | 77.2 | 
13 | CC1(C)CC[S+]([O-])c2ccc(C#Cc3cnc(C#N)nc3)cc21 (centres unmarked) [WYC-207, 2-cyano-5-((4,4-dimethyl-1-oxothiochroman-6-yl)ethynyl)pyrimidine] | 92.5 | IC50 [2]: 3.3 µM; inhibition at 10 µM [3]: 92.5%
14 | CCOC(=O)c1ncc(C#Cc2ccc3c(c2)C(C)(C)CC[S+]3[O-])cn1 (centres unmarked) [WYC-208, ethyl 5-((4,4-dimethyl-1-oxothiochroman-6-yl)ethynyl)pyrimidin-2-carboxylate] | 27.7 | 
15 | CCOC(=O)c1cnc(C#Cc2ccc3c(c2)C(C)(C)CC[S@+]3[O-])nc1 [WYC-209A, ethyl 2-((4,4-dimethyl-1S-oxothiochroman-6-yl)ethynyl)pyrimidin-5-carboxylate] |  | Inhibition rate on TRCs of B16-F1 melanoma at a concentration of 10 μM/% (10 μM (Table 3)): 98.9%; Inhibition rate on TRCs of B16-F1 melanoma at a concentration of 10 μM (%) (10 μM, incubated 5 days, colony tumor size): 98.9%; IC50 (dose-response curve): 0.15 µM
16 | CCOC(=O)c1cnc(C#Cc2ccc3c(c2)C(C)(C)CC[S@@+]3[O-])nc1 [WYC-209B, ethyl 2-((4,4-dimethyl-1R-oxothiochroman-6-yl)ethynyl)pyrimidin-5-carboxylate] | 98.7 | IC50 [2]: 0.22 µM; inhibition at 10 µM [3]: 98.7%
17 | CC1(C)CC[S+]([O-])c2ccc(C#Cc3ncc(C(=O)O)cn3)cc21 (centres unmarked) [WYC-210, 2-((4,4-dimethyl-1-oxothiochroman-6-yl)ethynyl)pyrimidin-5-carboxylic Acid] | 18.1 | 
18 | CC1(C)CCSc2ccc(C#Cc3ccc(C(=O)O)c(N)c3)cc21 [WYC-212, 2-amino-4-((4,4-dimethylthiochroman-6-yl)ethynyl)benzoic Acid] | 93.2 | IC50 [2]: 2.28 µM; inhibition at 10 µM [3]: 93.2%
19 | CC(=O)Nc1cc(C#Cc2ccc3c(c2)C(C)(C)CCS3)ccc1C(=O)O [WYC-213, 2-acetamido-4-((4,4-dimethylthiochroman-6-yl)ethynyl)benzoic Acid] | 71.1 | 
20 | CC1(C)CC[S+]([O-])c2ccc(C#Cc3ccc(C(=O)O)c(N)c3)cc21 (centres unmarked) [WYC-214, 2-amino-4-((4,4-dimethyl-1-oxothiochroman-6-yl)ethynyl)benzoic Acid] | 51.6 | 

Row | SMILES | inhibition at 10 µM [1] [%] | also measured
21 | COC(=O)c1ccc(C#Cc2ccc3c(c2)C(C)(C)CC[S+]3[O-])cc1N (centres unmarked) [WYC-215, methyl 2-amino-4-((4,4-dimethyl-1-oxothiochroman-6-yl)ethynyl)benzoate] | 80.2 | 
22 | CCOC(=O)c1ccc(C#Cc2ccc3c(c2)C(C)(C)CCS3)cc1N [WYC-216, ethyl 2-amino-4-((4,4-dimethylthiochroman-6-yl)ethynyl)benzoate] | 84 | 
23 | CCOC(=O)c1ccc(C#Cc2ccc3c(c2)C(C)(C)CCS3)cc1NC(C)=O [WYC-217, ethyl 2-acetamido-4-((4,4-dimethylthiochroman-6-yl)ethynyl)benzoate] | 90.3 | 
24 | CCOC(=O)c1ccc(C#Cc2ccc3c(c2)C(C)(C)CC[S+]3[O-])cc1N (centres unmarked) [WYC-218, ethyl 2-amino-4-((4,4-dimethyl-1-oxothiochroman-6-yl)ethynyl)benzoate] | 90.4 | 
25 | CNc1cc(C#Cc2ccc3c(c2)C(C)(C)CCS3)ccc1C(=O)OC [WYC-219, methyl 2-methylamino-4-((4,4-dimethylthiochroman-6-yl)ethynyl)benzoate] | 64.8 | 
26 | COC(=O)c1ccc(C#Cc2ccc3c(c2)C(C)(C)CCS3)cc1N [WYC-220, methyl 2-amino-4-((4,4-dimethylthiochroman-6-yl)ethynyl)benzoate] | 65.5 | 
27 | COC(=O)c1ccc(C#Cc2ccc3c(c2)C(c2ccccc2)=CCC3(C)C)cc1O [WYC-301, methyl 4-((5,5-dimethyl-8-phenyl-5,6-dihydronaphth-2-yl)ethynyl)-2-hydroxybenzoate] | 34.4 | 
28 | CCOC(=O)c1ccc(C#Cc2ccc3c(c2)C(c2ccccc2)=CCC3(C)C)cc1O [WYC-302, ethyl 4-((5,5-dimethyl-8-phenyl-5,6-dihydronaphth-2-yl)ethynyl)-2-hydroxybenzoate] | 21.9 | 
29 | CCOC(=O)c1ccc(C#Cc2ccc3c(c2)C(C)(C)CCS3)cc1F [WYC-303, ethyl 2-fluoro-4-((4,4-dimethylthiochroman-6-yl)ethynyl)benzoate] | 71.1 | 
30 | CC1(C)CCSc2ccc(C#Cc3ccc(C(=O)O)c(F)c3)cc21 [WYC-304, 2-fluoro-4-((4,4-dimethylthiochroman-6-yl)ethynyl)benzoic Acid] | 75.8 | 
31 | CCOC(=O)c1ccc(C#Cc2ccc3c(c2)C(c2ccccc2)=CCC3(C)C)cc1F [WYC-305, ethyl 4-((5,5-dimethyl-8-phenyl-5,6-dihydronaphth-2-yl)ethynyl)-2-fluorobenzoate] | 26 | 
32 | CC1(C)CC=C(c2ccccc2)c2cc(C#Cc3ccc(C(=O)O)c(F)c3)ccc21 [WYC-306, 4-((5,5-dimethyl-8-phenyl-5,6-dihydronaphth-2-yl)ethynyl)-2-fluorobenzic Acid] | 15.2 | 
33 | CCOC(=O)c1ccc(C#Cc2ccc3c(c2)C(C)(C)CCS3)c(F)c1 [WYC-307, ethyl 3-fluoro-4-((4,4-dimethylthiochroman-6-yl)ethynyl)benzoate] | 70.3 | 
34 | CCOC(=O)c1ccc(C#Cc2ccc3c(c2)C(C)(C)CCS3)c([N+](=O)[O-])c1 [WYC-308, ethyl 3-nitro-4-((4,4-dimethylthiochroman-6-yl)ethynyl)benzoate] | 71.9 | 
35 | CC1(C)CCSc2ccc(C#Cc3ccc(C(=O)O)cc3[N+](=O)[O-])cc21 [WYC-309, 3-nitro-4-((4,4-dimethylthiochroman-6-yl)ethynyl)benzoic Acid] | 56.8 | 
36 | CC1(C)CCSc2ccc(C#Cc3ccc(C(=O)O)cc3F)cc21 [WYC-310, 3-fluoro-4((4,4-dimethylthiochroman-6-yl)ethynyl)benzoic Acid] | 76.8 | 
37 | CCOC(=O)c1ccc(C#Cc2ccc3c(c2)C(C)(C)CC[S+]3[O-])c([N+](=O)[O-])c1 (centres unmarked) [WYC-311, ethyl 3-nitro-4-((4,4-dimethyl-1-oxothiochroman-6-yl)ethynyl)benzoate] | 80.2 | 
38 | CCOC(=O)c1ccc(C#Cc2ccc3c(c2)C(C)(C)CC[S+]3[O-])c(F)c1 (centres unmarked) [WYC-312, ethyl 3-fluoro-4-((4,4-dimethyl-1-oxothiochroman-6-yl)ethynyl)benzoate] | 71 | 
39 | CCOC(=O)c1ccc(C#Cc2ccc3c(c2)C(C)(C)CCS3)c(F)c1F [WYC-313, ethyl 2,3-difluoro-4((4,4-dimethylthiochroman-6-yl)ethynyl)benzoate] | 62.2 | 
40 | CC1(C)CCSc2ccc(C#Cc3ccc(C(=O)O)c(F)c3F)cc21 [WYC-314, 2,3-difluoro-4((4,4-dimethylthiochroman-6-yl)ethynyl)benzoic Acid] | 70.1 | 

From patent US10556879B2, “Retinoid compound, preparation method therefor, intermediates thereof and application thereof” (SHANGHAI INSTITUTE OF ORGANIC CHEMISTRY, CHINESE ACADEMY OF …, priority 2016, dated 2020)
